Ki and IC50 data for 32 molecules are collected here from patent publication US10988477B2 (Merck Patent GmbH, priority 2018, dated 2021).

A value given as a limit tells only on which side of the number the result lay.

Chain of GCN2 kinase (Q9P2K8 whole entry): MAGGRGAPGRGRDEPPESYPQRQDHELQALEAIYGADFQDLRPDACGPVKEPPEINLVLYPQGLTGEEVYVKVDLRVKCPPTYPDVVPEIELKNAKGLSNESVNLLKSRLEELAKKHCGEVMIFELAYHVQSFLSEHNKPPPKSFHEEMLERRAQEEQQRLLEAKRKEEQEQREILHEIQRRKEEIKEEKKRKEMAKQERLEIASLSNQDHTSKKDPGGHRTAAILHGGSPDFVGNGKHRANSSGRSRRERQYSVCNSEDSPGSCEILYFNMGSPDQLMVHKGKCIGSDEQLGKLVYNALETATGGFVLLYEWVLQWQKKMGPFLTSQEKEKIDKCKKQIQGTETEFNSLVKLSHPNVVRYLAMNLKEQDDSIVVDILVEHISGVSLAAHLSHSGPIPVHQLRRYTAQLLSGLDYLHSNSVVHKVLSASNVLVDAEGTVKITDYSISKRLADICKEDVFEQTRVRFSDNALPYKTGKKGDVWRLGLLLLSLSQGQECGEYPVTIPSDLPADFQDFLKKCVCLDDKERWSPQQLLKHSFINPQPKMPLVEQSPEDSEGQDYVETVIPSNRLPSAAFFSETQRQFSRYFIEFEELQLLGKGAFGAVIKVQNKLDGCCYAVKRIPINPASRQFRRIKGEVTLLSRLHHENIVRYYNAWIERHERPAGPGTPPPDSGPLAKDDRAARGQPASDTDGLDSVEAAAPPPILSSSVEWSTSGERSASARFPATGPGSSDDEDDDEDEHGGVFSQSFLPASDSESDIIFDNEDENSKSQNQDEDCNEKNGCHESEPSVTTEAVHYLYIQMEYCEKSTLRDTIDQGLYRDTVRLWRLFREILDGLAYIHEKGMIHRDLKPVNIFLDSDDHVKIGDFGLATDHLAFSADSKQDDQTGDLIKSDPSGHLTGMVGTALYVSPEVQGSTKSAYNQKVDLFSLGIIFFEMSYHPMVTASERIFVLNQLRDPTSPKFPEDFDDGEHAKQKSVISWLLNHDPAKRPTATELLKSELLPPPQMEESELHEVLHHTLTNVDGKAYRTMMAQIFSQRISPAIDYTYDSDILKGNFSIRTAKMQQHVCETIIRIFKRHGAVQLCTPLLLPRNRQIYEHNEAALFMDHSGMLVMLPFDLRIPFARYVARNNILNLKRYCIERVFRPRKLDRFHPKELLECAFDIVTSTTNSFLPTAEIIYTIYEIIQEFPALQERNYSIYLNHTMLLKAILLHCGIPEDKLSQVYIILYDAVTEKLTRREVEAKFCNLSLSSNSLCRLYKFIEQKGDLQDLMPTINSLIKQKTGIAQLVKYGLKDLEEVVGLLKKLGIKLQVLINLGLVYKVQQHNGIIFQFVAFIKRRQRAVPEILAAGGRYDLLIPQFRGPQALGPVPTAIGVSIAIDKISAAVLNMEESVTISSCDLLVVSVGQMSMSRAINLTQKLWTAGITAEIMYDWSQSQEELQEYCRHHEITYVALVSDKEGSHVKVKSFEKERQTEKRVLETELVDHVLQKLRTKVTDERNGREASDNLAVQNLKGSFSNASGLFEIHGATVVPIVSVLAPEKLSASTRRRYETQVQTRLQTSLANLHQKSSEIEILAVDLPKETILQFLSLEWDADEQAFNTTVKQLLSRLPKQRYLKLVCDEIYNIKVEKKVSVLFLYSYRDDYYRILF

The target of the first experiment is GCN2 kinase (Homo sapiens, UniProt Q9P2K8). Put plainly: GCN2 enzyme inhibition assay (Transcreener ADP2 fluorescence polarization). It counts as biochemical. To be noted: Enzyme activity for compounds of Formula IV; Ki(app), 280 μM ATP, 25° C. The gist of the method:
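Run at 25 °C in 25 mM Tris-HCl pH 7.5, 50 mM NaCl, 10 mM MgCl2, 1 mM DTT with 4 nM GCN2, 280 μM ATP and 200 μM (RS)7 peptide; compound (0–8 μM final) preincubated 10 min, reaction 1 h. ADP read by antibody/tracer FP; IC50 and Ki(app) from tight-binding fit.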
On the technique in general: Fluorescence polarisation rises when a labelled molecule tumbles more slowly, as on binding a larger partner.
`CC1CC(C(N)=O)C(C)N(c2ccnc(-c3cnc4cnc(C(F)(F)F)cn34)n2)C1` (single isomer, unassigned) [IV-500, 2,5-Dimethyl-1-(2-(6-(trifluoromethyl)imidazo[1,2-a]pyrazin-3-yl)pyrimidin-4-yl)piperidine-3-carboxamide] displayed a Ki of 100 to 1000 nM.

On to `N#C[C@@H]1CCN(c2ccnc(-c3cnc4cnc(C(F)(F)F)cn34)n2)C1` (single isomer, unassigned) [IV-521], for which the Ki was in the range of 100 to 1000 nM.

Molecule `FC(F)(F)c1cn2c(-c3nccc(N4CCC(c5cn[nH]c5)C4)n3)cnc2cn1` (single isomer, unassigned) [IV-541, 3-(4-(3-(1H-Pyrazol-4-yl)pyrrolidin-1-yl)pyrimidin-2-yl)-6-(trifluoromethyl)imidazo[1,2-a]pyrazine] returned a Ki of 10 to 100 nM.

`FC(F)(F)c1cn2c(-c3nccc(N4CCCC(C5CCOC5)C4)n3)cnc2cn1` (single isomer, unassigned) [IV-543, 3-(4-(3-(Tetrahydrofuran-3-yl)piperidin-1-yl)pyrimidin-2-yl)-6-(trifluoromethyl)imidazo[1,2-a]pyrazine] yielded a Ki of 100 to 1000 nM.

Take `FC(F)(F)c1cn2c(-c3nccc(N4CCCC(C5CCOC5)C4)n3)cnc2cn1` (single isomer, unassigned) [IV-544, 3-(4-(3-(Tetrahydrofuran-3-yl)piperidin-1-yl)pyrimidin-2-yl)-6-(trifluoromethyl)imidazo[1,2-a]pyrazine]: the Ki fell in the range of 100 to 1000 nM.

The molecule `CC1CN(c2ccnc(-c3cnc4cnc(C(F)(F)F)cn34)n2)C(C)C(c2cnc[nH]2)N1` (single isomer, unassigned) [IV-549, 3-(4-(3-(1H-Imidazol-5-yl)-2,5-dimethylpiperazin-1-yl)pyrimidin-2-yl)-6-(trifluoromethyl)imidazo[1,2-a]pyrazine] registered a Ki of 100 to 1000 nM.

Molecule `CN1C(=O)CO[C@H]2CN(c3ccnc(-c4cnc5cnc(C(F)(F)F)cn45)n3)C[C@@H]21` (single isomer, unassigned) [IV-551] came in with a Ki of 100 to 1000 nM.

On to `C[C@H]1CCCCN1c1ccnc(-c2cnc3cnc(C(F)(F)F)cn23)n1` (single isomer, unassigned) [IV-597], for which the Ki lay within 10 to 100 nM.

The molecule `CC1CN(c2ccnc(-c3cnc4cnc(C(F)(F)F)cn34)n2)C(C)C(c2c[nH]c(C(F)(F)F)n2)N1` (single isomer, unassigned) [IV-674, 3-(4-(2,5-Dimethyl-3-(2-(trifluoromethyl)-1H-imidazol-4-yl)piperazin-1-yl)pyrimidin-2-yl)-6-(trifluoromethyl)imidazo[1,2-a]pyrazine] came in with a Ki of 100 to 1000 nM.

Staying with this experiment, now noted: compounds of Formula II; 280 μM ATP, 4 nM GCN2 kinase.
As for `C[C@@H]1[C@H](CNS(C)(=O)=O)CCCN1c1cc(-c2cnc3ccc(C(F)F)nn23)ncn1` (stereo in doubt) [II-754, N-(((2R,3S)-1-(6-(6-(difluoromethyl)imidazo[1,2-b]pyridazin-3-yl)pyrimidin-4-yl)-2-methylpiperidin-3-yl)methyl)methanesulfonamide], the IC50 – broadly, the concentration that inhibits the measured activity by half – is above 1000 nM.

Regarding `Cc1nn(C)cc1C1CN(c2cc(-c3cnc4ccc(C(F)(F)F)nn34)ncn2)C[C@@H](C)O1` (stereo in doubt) [II-760, (2R,6R)-2-(1,3-dimethyl-1H-pyrazol-4-yl)-6-methyl-4-(6-(6-(trifluoromethyl)imidazo[1,2-b]pyridazin-3-yl)pyrimidin-4-yl)morpholine], the IC50 is 10 to 1000 nM.

On to `Cc1nn(C)cc1C1CN(c2cc(-c3cnc4ccc(C(F)(F)F)nn34)ncn2)C[C@@H](C)O1` (stereo in doubt) [II-761, (2S,6R)-2-(1,3-dimethyl-1H-pyrazol-4-yl)-6-methyl-4-(6-(6-(trifluoromethyl)imidazo[1,2-b]pyridazin-3-yl)pyrimidin-4-yl)morpholine], for which the IC50 is above 1000 nM.

Take `CS(=N)(=O)NC[C@@H]1CN(c2cc(-c3cnc4ccc(C(F)F)nn34)ncn2)CCO1` (stereo partly drawn) [II-23, N—(((S)-4-(6-(6-(Difluoromethyl)imidazo[1,2-b]pyridazin-3-yl)pyrimidin-4-yl)morpholin-2-yl)methyl)methanesulfonimidamide]: the Ki lay in the range of 10 to 1000 nM.

For the molecule `CC1C(CO)N(C(C)(C)C)CCN1c1cc(-c2cnc3ccc(C(F)F)nn23)ncn1` (centres unmarked) [II-43, (1-(tert-Butyl)-4-(6-(6-(difluoromethyl)imidazo[1,2-b]pyridazin-3-yl)pyrimidin-4-yl)-3-methylpiperazin-2-yl)methanol], the Ki is above 1000 nM.

The molecule `CS(=O)(=O)NCC1CCCN(c2cc(-c3cnc4ccc(C(F)F)nn34)cc(NCCO)n2)C1` (centres unmarked) [II-91, N-((1-(4-(6-(Difluoromethyl)imidazo[1,2-b]pyridazin-3-yl)-6-((2-hydroxyethyl)amino)pyridin-2-yl)piperidin-3-yl)methyl)methanesulfonamide] showed a Ki below 10 nM.

For the molecule `FC(F)c1ccc2ncc(-c3ccnc(N4C[C@@H]5C[C@H]4CN5)c3)n2n1` [II-165, 3-(2-((1S,4S)-2,5-Diazabicyclo[2.2.1]heptan-2-yl)pyridin-4-yl)-6-(difluoromethyl)imidazo[1,2-b]pyridazine], the Ki was in the range of 10 to 1000 nM.

`Clc1ccc2ncc(-c3ccnc(N4CCNCC4)c3)n2n1` [II-220, 6-Chloro-3-(2-(piperazin-1-yl)pyridin-4-yl)imidazo[1,2-b]pyridazine]: the Ki was above 1000 nM.

For the molecule `CNS(=O)(=O)CC1CCCN(c2cc(-c3cnc4ccc(C(F)F)nn34)ncn2)C1` (centres unmarked) [II-236, 1-(1-(6-(6-(Difluoromethyl)imidazo[1,2-b]pyridazin-3-yl)pyrimidin-4-yl)piperidin-3-yl)-N-methylmethanesulfonamide], the Ki fell in the range of 10 to 1000 nM.

With `CCC1COC(CNS(C)(=O)=O)CN1c1cc(-c2cnc3ccc(C(F)F)nn23)ncn1` (centres unmarked) [II-269, N-((4-(6-(6-(Difluoromethyl)imidazo[1,2-b]pyridazin-3-yl)pyrimidin-4-yl)-5-ethylmorpholin-2-yl)methyl)methanesulfonamide], the Ki was in the range of 10 to 1000 nM.

`CN1CCN(c2cc(-c3cnc4ccc(C(F)F)nn34)ncn2)CC1CS(N)(=O)=O` (centres unmarked) [II-464, (4-(6-(6-(Difluoromethyl)imidazo[1,2-b]pyridazin-3-yl)pyrimidin-4-yl)-1-methylpiperazin-2-yl)methanesulfonamide] had a Ki of 10 to 1000 nM.

In the case of `COCCN1CCN(c2cc(-c3cnc4ccc(C(F)F)nn34)ncn2)C(C)C1CNS(C)(=O)=O` (centres unmarked) [II-494, N-((4-(6-(6-(Difluoromethyl)imidazo[1,2-b]pyridazin-3-yl)pyrimidin-4-yl)-1-(2-methoxyethyl)-3-methylpiperazin-2-yl)methyl)methanesulfonamide], the Ki is below 10 nM.

Molecule `N#CCC1CCCN(c2cc(-c3cnc4ccc(C(F)(F)F)nn34)ncn2)C1` (centres unmarked) [II-501, 2-(1-(6-(6-(Trifluoromethyl)imidazo[1,2-b]pyridazin-3-yl)pyrimidin-4-yl)piperidin-3-yl)acetonitrile] gave a Ki of 10 to 1000 nM.

On to `CC1C(CNS(C)(=O)=O)N(C(C)C)CCN1c1cc(-c2cnc3ccc(C(F)F)nn23)ncn1` (centres unmarked) [II-507, N-((4-(6-(6-(Difluoromethyl)imidazo[1,2-b]pyridazin-3-yl)pyrimidin-4-yl)-1-isopropyl-3-methylpiperazin-2-yl)methyl)methanesulfonamide], for which the Ki is below 10 nM.

`O=C(O)[C@@H]1CCCN(c2cc(-c3cnc4ccc(C(F)F)nn34)ncn2)C1` [II-508, (R)-1-(6-(6-(Difluoromethyl)imidazo[1,2-b]pyridazin-3-yl)pyrimidin-4-yl)piperidine-3-carboxylic acid]: the Ki was in the range of 10 to 1000 nM.

With `N#CCC1CN(c2cc(-c3cnc4ccc(C(F)F)nn34)ncn2)CCO1` (centres unmarked) [II-512, 2-(4-(6-(6-(Difluoromethyl)imidazo[1,2-b]pyridazin-3-yl)pyrimidin-4-yl)morpholin-2-yl)acetonitrile], the Ki lay within 10 to 1000 nM.

Regarding `N#CCC1CN(c2cc(-c3cnc4ccc(C(F)(F)F)nn34)ncn2)CCO1` (centres unmarked) [II-513, 2-(4-(6-(6-(Trifluoromethyl)imidazo[1,2-b]pyridazin-3-yl)pyrimidin-4-yl)morpholin-2-yl)acetonitrile], the Ki is 10 to 1000 nM.

The molecule `CN1CCN(c2cc(-c3cnc4ccc(C(F)F)nn34)ncn2)CC1CCO` (centres unmarked) [II-514, 2-(4-(6-(6-(Difluoromethyl)imidazo[1,2-b]pyridazin-3-yl)pyrimidin-4-yl)-1-methylpiperazin-2-yl)ethan-1-ol] yielded a Ki of 10 to 1000 nM.

`CC(=O)N1CCN(c2cc(-c3cnc4ccc(C(F)F)nn34)ncn2)C(C)C1CNS(C)(=O)=O` (centres unmarked) [II-515, N-((1-Acetyl-4-(6-(6-(difluoromethyl)imidazo[1,2-b]pyridazin-3-yl)pyrimidin-4-yl)-3-methylpiperazin-2-yl)methyl)methanesulfonamide] displayed a Ki below 10 nM.

The experiment is the same for the next values; noted with them: compounds of Formula IV; 280 μM ATP, 4 nM GCN2 kinase.
Take `Cc1n[nH]cc1[C@H]1CN(c2ccnc(-c3cnc4cnc(C(F)(F)F)cn34)n2)C[C@@H](C)O1` (stereo in doubt) [IV-762, (2R,6S)-2-methyl-6-(3-methyl-1H-pyrazol-4-yl)-4-(2-(6-(trifluoromethyl)imidazo[1,2-a]pyrazin-3-yl)pyrimidin-4-yl)morpholine]: the IC50 is 10 to 1000 nM.

The experiment is the same for the next values; noted with them: compounds of Formula V; 280 μM ATP, 4 nM GCN2 kinase.
Consider `C[C@@H]1CN(c2ccnc(-c3cnc4sc(C(F)F)cn34)n2)C[C@H](CNS(C)(=O)=O)C1(F)F` (stereo in doubt) [Compound V-2, N-((-1-(2-(2-(difluoromethyl)imidazo[2,1-b]thiazol-5-yl)pyrimidin-4-yl)-4,4-difluoro-5-methylpiperidin-3-yl)methyl)methanesulfonamide], for which the Ki lay in the range of 100 to 1000 nM.

Molecule `O=C1CCN(c2ccnc(-c3cnc4sc(C(F)(F)F)cn34)n2)CCN1` [Compound V-8, 1-[2-[2-(Trifluoromethyl)imidazo[2,1-b]thiazol-5-yl]pyrimidin-4-yl]-1,4-diazepan-5-one] displayed a Ki of 100 to 1000 nM.

`CS(C)(=O)=NC1CCCN(c2ccnc(-c3cnc4sc(C(F)(F)F)cn34)n2)C1` (centres unmarked) [Compound V-9, Dimethyl((1-(2-(2-(trifluoromethyl)imidazo[2,1-b]thiazol-5-yl)pyrimidin-4-yl)piperidin-3-yl)imino)-λ^6-sulfanone] showed a Ki of 100 to 1000 nM.
